In series [1] the test system is Plasmodium falciparum. Briefly: Antimalarial activity against chloroquine-resistant Plasmodium falciparum Dd2 after 72 hrs by DAPI staining based confocal microplate imaging method. To be noted: Dd2, 72 h. It counts as functional, organism-based.
The nature of series [2]: Selectivity index, ratio of IC50 for HEK293 cells to IC50 for chloroquine-sensitive Plasmodium falciparum 3D7. The settings on record: human, read-out: Ratio IC50. Type of series: toxicity.
Series [3] deals with HEK293. Briefly: Cytotoxicity against HEK293 cells after 72 hrs by resazurin dye based assay. It counts as cell-based. The settings on record: Homo sapiens, HEK293, 72 h. In general terms: The colour change of resazurin is a common sign of viable cells or microbes.
Series [4] has as its system Plasmodium falciparum. Briefly: Antimalarial activity against chloroquine-sensitive Plasmodium falciparum 3D7 after 72 hrs by DAPI staining based confocal microplate imaging method. The settings on record: 3D7, 72 h. Type of series: functional, organism-based.
The test system of series [5] is HEK293. Briefly: Cytotoxicity against HEK293 cells at 40 uM after 72 hrs by resazurin dye based assay. It counts as cell-based. To be noted: human, hek293, 72 h.
Series [6] has as its system Plasmodium falciparum. Briefly: Antimalarial activity against chloroquine-sensitive Plasmodium falciparum 3D7 at 5 uM after 72 hrs by DAPI staining based confocal microplate imaging method relative to control. It counts as functional.
The test system of series [7] is Plasmodium falciparum. Briefly: Antimalarial activity against chloroquine-sensitive Plasmodium falciparum 3D7 at 40 uM after 72 hrs by DAPI staining based confocal microplate imaging method. It counts as functional, organism-based.
Series [8] deals with Plasmodium falciparum. Briefly: Growth inhibition of chloroquine-resistant Plasmodium falciparum Dd2 at 40 uM after 72 hrs by DAPI staining based confocal microplate imaging method relative to control. Type of series: functional.

Each structure is given as a SMILES string. Activity calls are given as the source filed them. The rule behind the calls is not given here.

For orientation: IC50 means the concentration needed to halve the response being measured. On to `CC1=C[C@H]2[C@@H]([C@@H](c3[nH]c4ccccc4c3CCN(C)C)[C@]34CCN(C)[C@]23Nc2ccccc24)C(C)(C)C1`, for which the IC50 is 340 nM with Plasmodium falciparum [1], 7100 nM in the series on HEK293 [3] and 510 nM in the series with Plasmodium falciparum [4]. In addition, the selectivity ratio in series [2] was found to be 14.
On to `CC1(C)C=Cc2c(cc3oc(-c4ccc(O)cc4)cc(=O)c3c2O)O1`, for which the figures for the IC50 with Plasmodium falciparum [1] and in the series with Plasmodium falciparum [4] were 2300 nM and 3400 nM, respectively. The Activity entry in the series on HEK293 [5] is reported as “Non-Toxic”. In series [2], the selectivity ratio is greater than 6.
On to `COc1ccc(C[C@H](N)C(=O)N[C@H]2[C@@H](O)[C@H](n3cnc4c(N(C)C)ncnc43)O[C@@H]2CO)cc1` [PUROMYCIN], for which the half-inhibitory concentration (IC50) is 32 nM in the series with Plasmodium falciparum [1] and 450 to 690 nM in the series with HEK293 [3]. Besides, in series [2], the selectivity ratio came to 8. The compound also displayed an Activity with Plasmodium falciparum [6] of 100%.
Turning to `CN(C)CCc1c(C[C@@H]2O[C@]34OC[C@H](O)[C@H]3OC(=O)[C@]4(O)C2(C)C)[nH]c2ccccc12.O=C(O)C(F)(F)F`, the outcome in the series with Plasmodium falciparum [7] was inactive. Besides, in the series on HEK293 [5], the Activity entry is on record as “Non-Toxic”. Further, in the series with Plasmodium falciparum [8], the “growth inhibition (GI)” value is “inactive”.
In the case of `CNCCc1c(C[C@@H]2O[C@]34OC[C@H](O)[C@H]3OC(=O)[C@]4(O)C2(C)C)[nH]c2ccccc12.O=C(O)C(F)(F)F`, the outcome with Plasmodium falciparum [7] was inactive. In addition, in the series on HEK293 [5], the Activity result was “Non-Toxic”. In addition, the “growth inhibition (GI)” value in the series on Plasmodium falciparum [8] is “inactive”.
Take `C[C@H]1[C@@H](O)O[C@@H]2O[C@@]3(C)CC[C@H]4[C@H](C)CC[C@@H]1[C@@]24OO3` [ARTENIMOL]: the IC50 stood at 0.4 nM with Plasmodium falciparum [1], 9900 nM in the series with HEK293 [3] and 0.3 nM in the series on Plasmodium falciparum [4]. The selectivity ratio in series [2] came to 38100.
As to `C[C@H]1[C@H](OC(=O)CCC(=O)O)O[C@@H]2O[C@@]3(C)CC[C@H]4[C@H](C)CC[C@@H]1[C@@]24OO3` [ARTESUNATE], in series [2], the selectivity ratio was found to be 7990. Also, the IC50 in the series with HEK293 [3] came out at 7000 nM; in the series with Plasmodium falciparum [4], 1 nM.
As to `C[C@@H]1O[C@@H](Oc2c(-c3ccc(O)c(O)c3)oc3cc(O)cc(O)c3c2=O)[C@H](O)[C@H](O)[C@H]1O` [QUERCITRIN], the result in the series with Plasmodium falciparum [7] was inactive. Also, in the series with HEK293 [5], the Activity entry is “Non-Toxic”. Besides, in the series with Plasmodium falciparum [8], the “growth inhibition (GI)” value was “inactive”.
For the compound `CC1(C)[C@H](Cc2[nH]c3ccccc3c2CC[N+](C)(C)O)O[C@]23OC[C@H](O)[C@H]2OC(=O)[C@]13O.O=C([O-])C(F)(F)F`, the IC50 in the series on Plasmodium falciparum [1] was 2700 nM; in the series on Plasmodium falciparum [4], 3600 nM. Also, the Activity result in the series with HEK293 [5] is reported as “Non-Toxic”. Besides, in series [2], the selectivity ratio was greater than 6.
With `CCN(CC)CCCC(C)Nc1ccnc2cc(Cl)ccc12` (stereo not drawn) [CHLOROQUINE], it took 490 nM to reach half-maximal inhibition in the series on HEK293 [3] (IC50).
As for `COc1ccc2nc3cc(Cl)ccc3c(Nc3cc(CN4CCCC4)c(O)c(CN4CCCC4)c3)c2n1` [PYRONARIDINE], the IC50 in the series with Plasmodium falciparum [1] was found to be 140 nM; in the series on HEK293 [3], 2900 nM. The selectivity ratio in series [2] worked out at 239.
With `CNCCc1c([C@@H]2[C@@H]3[C@H](C=C(C)CC3(C)C)[C@]34Nc5ccccc5[C@]23CCN4C)[nH]c2ccccc12`, the figures for the IC50 with Plasmodium falciparum [1], in the series with HEK293 [3] and in the series with Plasmodium falciparum [4] were 220 nM, 5000 nM and 310 nM, respectively. In series [2], the selectivity ratio stood at 16.
Consider `CCc1nc(N)nc(N)c1-c1ccc(Cl)cc1` [PYRIMETHAMINE], for which, in series [2], the selectivity ratio stood at 120. For the same compound, the values for the IC50 in the series on HEK293 [3] and in the series with Plasmodium falciparum [4] were 690 nM and 6 nM, respectively. The inhibition of growth at 40 µM in the series on Plasmodium falciparum [8] (Dd2, 72 h, read-out: GI) turned out to be 59%.
Consider `CC1=C[C@@H]2c3c(CCN(C)C)c4ccccc4n3[C@@H](c3[nH]c4ccccc4c3CCN(C)C)[C@@H]2C(C)(C)C1`, for which the values for the IC50 in the series with Plasmodium falciparum [1], in the series with HEK293 [3] and in the series with Plasmodium falciparum [4] were 190 nM, 5400 nM and 670 nM, respectively. Also, in series [2], the selectivity ratio amounted to 8.
